Laboratory results taken from patent publication US20240050491A1 (priority 2021, published 2024).

Columns and labels:
[1] = system: Salmonella Typhimurium SL1344; assay: Salmonella survival in alfalfa sprouts with BX-77 and/or Ca-hypochlorite disinfection; assay type: in vivo
Text: FIG. 19 is a graph illustrating Salmonella Typhimurium SL1344 survival in sprouts in the presence of BX-77 or absence of BX-77 after disinfection by Ca-hypochlorite of Salmonella contaminated seeds. Alfalfa seeds were contaminated by 10^2 or 10^5 CFU of Salmonella, dried, decontaminated by Ca-hypochlorite and seeded in the presence or absence of BX-77. Salmonella infected seeds were used as controls in the absence or the presence of BX-77. The experiment was repeated twice and each set included 5 cups.
(§1) Seed sterilization by Ca-hypochlorite: To assess the ability of Ca-hypochlorite to inactivate the Salmonella enterica serovar Typhimurium (STm) strain SL1344 on the seeds, alfalfa seeds were pre-contaminated with increasing concentrations of STm cells. Breifly, seeds (1 g) 15 were contaminated with the desired number of bacteria by adding 20 μL of STm suspended in SDDW and mixing by a sterile plastic spreader and then the seeds were dried at room-temp for 30 minutes. […] After 4 days the alfalfa sprouts were extracted and the STm concentration in the extract was analyzed. Salmonella Typhimurium SL1344 survival in sprouts in the presence or absence of Bacillus BX-77 was analyzed after disinfection by Ca-hypochlorite of alfalfa seeds contaminated by 10^2 or 10^5 CFU of STm. […]

Salmonella = assay: Decontamination of Salmonella contaminated alfalfa seeds by Ca-hypochlorite; assay type: in vivo, Salmonella enterica serovar Typhimurium; conditions: 20,000 ppm
Procedure: FIGS. 18A-B are graphs illustrating the influence of decontamination by Ca-hypochlorite, of Salmonella contaminated alfalfa seeds, on the concentration of Salmonella. The seeds were contaminated with Salmonella by dipping in 10^2-[…] CFU/ml. Decontamination was performed with 20,000 ppm Ca-hypochlorite. The number of Salmonella on the seeds (CFU/g seeds) was detected immediately after the contamination (A), and in the sprouts (B) after 3 days of sprouting (CFU/g sprouts). The results are representing the average and standard error of 3 independent experiments in duplicates. When bacteria were not detected, enrichment of the samples was performed in BPW. (*) Growth after enrichment. (−) No growth.
as §1, with “cells.” for “cells. Breifly, seeds (1 g) 15 were contaminated with the desired number of bacteria by adding 20 μL of STm suspended in SDDW and mixing by a sterile plastic spreader and then the seeds were dried at room-temp for 30 minutes.”

In the case of `[Ca+2].[O-]Cl.[O-]Cl` [Ca-hypochlorite, calcium hypochlorite], the “killing of Salmonella cells” value ([1]; seeds infected by 10^2 CFU of Salmonella) was “killed all the Salmonella cells”, the “reduction of Salmonella growth” value ([1]; seeds infected by 10^5 CFU of Salmonella) was 2 log CFU/g and the efficiency of decontamination (Salmonella; higher Salmonella concentrations, 3 day sprouts) was “not efficient”. For the same compound, the efficiency of decontamination (Salmonella; low Salmonella concentrations up to 10^3/ml, seeds and 3 day sprouts) was “Salmonella was not detected even after sprouting”.
